Data from the supplement of paper PMC10307832.

Assays:
Assay in all cases: relative viability (nuclei count vs DMSO), 5 days (fraction); higher = more cells survive
NCI-H1395 = system: NCI-H1395
Procedure, shortened: (§1)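 A single step with final 0.05% Triton X-100, 1% formaldehyde and 1 ug/ml Hoechst fixed the cells and stained nuclei 5 days after treatment. Lung cancer cell lines in 1536-well plates had been treated by pin tool the day after seeding with one drug alone or a fixed anchor-drug dose plus five library-drug doses (not always all listed) in √10 steps, and nuclei were counted on 4× images. Relative viability is the ratio of nuclei in treated wells to nuclei in vehicle wells, taken as the median of duplicate plates.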

NCI-H358 = system: NCI-H358
Procedure, shortened: as §1

NCI-H1563 = system: NCI-H1563
Procedure, shortened: as §1

CAL-12T = system: CAL-12T
Procedure, shortened: as §1

NCI-H2085 = system: NCI-H2085
Procedure, shortened: as §1

NCI-H2228 = system: NCI-H2228
Procedure, shortened: as §1

NCI-H838 = system: NCI-H838
Procedure, shortened: as §1

UMC-11 = system: UMC-11
Procedure, shortened: as §1

NCI-H1666 = system: NCI-H1666
Procedure, shortened: as §1

PC-14 = system: PC-14
Procedure, shortened: as §1

LCLC-103H = system: LCLC-103H
Procedure, shortened: as §1

NCI-H1651 = system: NCI-H1651
Procedure, shortened: as §1

NCI-H322M = system: NCI-H322M
Procedure, shortened: as §1

NCI-H2087 = system: NCI-H2087
Procedure, shortened: as §1

LK-2 = system: LK-2
Procedure, shortened: as §1

NCI-H23 = system: NCI-H23
Procedure, shortened: as §1

H3255 = system: H3255
Procedure, shortened: as §1

NCI-H1355 = system: NCI-H1355
Procedure, shortened: as §1

ABC-1 = system: ABC-1
Procedure, shortened: as §1

A-427 = system: A-427
Procedure, shortened: as §1

NCI-H661 = system: NCI-H661
Procedure, shortened: as §1

COCC1(CO)C(=O)C2CCN1CC2 (stereo not drawn) [PRIMA-1MET] + COc1cc2c(Oc3ccc(NC(=O)C4(C(=O)Nc5ccc(F)cc5)CC4)cc3F)ccnc2cc1OCCCN1CCOCC1 [Foretinib] (partner 0.25 µM)
relative viability (NCI-H1395; first compound 0.2 µM): 1.03
relative viability (NCI-H1395; first compound 0.6325 µM): 0.652
relative viability (NCI-H1395; first compound 2 µM): 1.05
relative viability (NCI-H1395; first compound 6.325 µM): 1
relative viability (NCI-H1395; first compound 20 µM): 0.971
relative viability (NCI-H358; first compound 0.2 µM): 0.881
relative viability (NCI-H358; first compound 2 µM): 0.592
relative viability (NCI-H358; first compound 6.325 µM): 0.634
relative viability (NCI-H358; first compound 20 µM): 0.0429
relative viability (NCI-H1563; first compound 0.2 µM): 1.05
relative viability (NCI-H1563; first compound 0.6325 µM): 1
relative viability (NCI-H1563; first compound 2 µM): 0.838
relative viability (NCI-H1563; first compound 6.325 µM): 0.911
relative viability (NCI-H1563; first compound 20 µM): 0.288
relative viability (CAL-12T; first compound 0.2 µM): 1.33
relative viability (CAL-12T; first compound 0.6325 µM): 1.23
relative viability (CAL-12T; first compound 2 µM): 1
relative viability (CAL-12T; first compound 6.325 µM): 1.16
relative viability (CAL-12T; first compound 20 µM): 0.939
relative viability (NCI-H2085; first compound 0.2 µM): 1.01
relative viability (NCI-H2085; first compound 0.6325 µM): 1.01
relative viability (NCI-H2085; first compound 2 µM): 0.772
relative viability (NCI-H2085; first compound 6.325 µM): 0.53
relative viability (NCI-H2085; first compound 20 µM): 0.122
relative viability (NCI-H2228; first compound 0.2 µM): 0.973
relative viability (NCI-H2228; first compound 0.6325 µM): 0.938
relative viability (NCI-H2228; first compound 2 µM): 0.87
relative viability (NCI-H2228; first compound 6.325 µM): 0.952
relative viability (NCI-H2228; first compound 20 µM): 0.0309
relative viability (NCI-H838; first compound 0.2 µM): 1.23
relative viability (NCI-H838; first compound 0.6325 µM): 0.822
relative viability (NCI-H838; first compound 2 µM): 1.02
relative viability (NCI-H838; first compound 6.325 µM): 1.07
relative viability (NCI-H838; first compound 20 µM): 0.683
relative viability (UMC-11; first compound 0.2 µM): 1.15
relative viability (UMC-11; first compound 0.6325 µM): 0.916
relative viability (UMC-11; first compound 2 µM): 0.963
relative viability (UMC-11; first compound 6.325 µM): 0.979
relative viability (UMC-11; first compound 20 µM): 1.02
relative viability (NCI-H1666; first compound 0.2 µM): 0.959
relative viability (NCI-H1666; first compound 0.6325 µM): 0.906
relative viability (NCI-H1666; first compound 2 µM): 0.942
relative viability (NCI-H1666; first compound 6.325 µM): 0.952
relative viability (NCI-H1666; first compound 20 µM): 0.908
relative viability (PC-14; first compound 0.2 µM): 1.01
relative viability (PC-14; first compound 0.6325 µM): 0.87
relative viability (PC-14; first compound 2 µM): 0.931
relative viability (PC-14; first compound 6.325 µM): 1.12
relative viability (PC-14; first compound 20 µM): 0.914
relative viability (LCLC-103H; first compound 0.2 µM): 0.915
relative viability (LCLC-103H; first compound 0.6325 µM): 0.718
relative viability (LCLC-103H; first compound 2 µM): 0.698
relative viability (LCLC-103H; first compound 6.325 µM): 0.726
relative viability (LCLC-103H; first compound 20 µM): 0.189
relative viability (NCI-H1651; first compound 0.2 µM): 0.87
relative viability (NCI-H1651; first compound 0.6325 µM): 0.578
relative viability (NCI-H1651; first compound 2 µM): 0.77
relative viability (NCI-H1651; first compound 6.325 µM): 0.933
relative viability (NCI-H1651; first compound 20 µM): 0.827
relative viability (NCI-H322M; first compound 0.2 µM): 1.14
relative viability (NCI-H322M; first compound 0.6325 µM): 0.911
relative viability (NCI-H322M; first compound 6.325 µM): 1.18
relative viability (NCI-H322M; first compound 20 µM): 0.931
relative viability (NCI-H2087; first compound 0.2 µM): 1.29
relative viability (NCI-H2087; first compound 0.6325 µM): 1.17
relative viability (NCI-H2087; first compound 2 µM): 0.932
relative viability (NCI-H2087; first compound 6.325 µM): 1.02
relative viability (NCI-H2087; first compound 20 µM): 0.632
relative viability (LK-2; first compound 0.2 µM): 1.4
relative viability (LK-2; first compound 0.6325 µM): 1.16
relative viability (LK-2; first compound 2 µM): 0.567
relative viability (LK-2; first compound 6.325 µM): 0.752
relative viability (LK-2; first compound 20 µM): 0.147
relative viability (NCI-H23; first compound 0.2 µM): 1.09
relative viability (NCI-H23; first compound 0.6325 µM): 1
relative viability (NCI-H23; first compound 2 µM): 0.861
relative viability (NCI-H23; first compound 6.325 µM): 0.966
relative viability (NCI-H23; first compound 20 µM): 0.257
relative viability (H3255; first compound 0.2 µM): 0.822
relative viability (H3255; first compound 0.6325 µM): 0.947
relative viability (H3255; first compound 2 µM): 0.807
relative viability (H3255; first compound 6.325 µM): 1.05
relative viability (H3255; first compound 20 µM): 0.924
relative viability (NCI-H1355; first compound 0.2 µM): 1.02
relative viability (NCI-H1355; first compound 0.6325 µM): 0.846
relative viability (NCI-H1355; first compound 2 µM): 1.01
relative viability (NCI-H1355; first compound 6.325 µM): 1.01
relative viability (NCI-H1355; first compound 20 µM): 0.956
relative viability (ABC-1; first compound 0.2 µM): 1.19
relative viability (ABC-1; first compound 0.6325 µM): 0.937
relative viability (ABC-1; first compound 2 µM): 1.25
relative viability (ABC-1; first compound 6.325 µM): 1.03
relative viability (ABC-1; first compound 20 µM): 0.505
relative viability (A-427; first compound 0.2 µM): 0.902
relative viability (A-427; first compound 0.6325 µM): 0.837
relative viability (A-427; first compound 2 µM): 0.895
relative viability (A-427; first compound 6.325 µM): 0.983
relative viability (A-427; first compound 20 µM): 0.953
relative viability (NCI-H661; first compound 0.2 µM): 1.07
relative viability (NCI-H661; first compound 0.6325 µM): 1
relative viability (NCI-H661; first compound 2 µM): 0.975
relative viability (NCI-H661; first compound 6.325 µM): 0.988
relative viability (NCI-H661; first compound 20 µM): 0.979
